Reference: ChEMBL document CHEMBL1201862, “PubChem BioAssay data set” (2004)
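Step 1: Grow cells in 96-well plates. Step 2: Expose to compound for 48 hours at 5 concentrations. Step 3: Interpolate endpoints linearly; if unreached, use highest concentration. The concentration for 50% growth inhibition is given as GI50.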 The source made the active and inactive calls. No stated cut-off is given here; in the data, active = GI50 up to about 1.1 µM and inactive = higher.

How the values were obtained:
Experiment in all cases: NCI tumour cell line growth inhibition, 48 h
TK-10 = system: TK-10
CCRF-CEM = system: CCRF-CEM
NCI-H522 = system: NCI-H522
OVCAR-8 = system: OVCAR-8
A549 = system: A549
SNB-75 = system: SNB-75
NCI-H226 = system: NCI-H226
UACC-257 = system: UACC-257
786-0 = system: 786-0
DU-145 = system: DU-145
UO-31 = system: UO-31
SN12C = system: SN12C
COLO 205 = system: COLO 205
SF-268 = system: SF-268
SK-OV-3 = system: SK-OV-3
SW-620 = system: SW-620
Malme-3M = system: Malme-3M
MDA-MB-435 = system: MDA-MB-435
EKVX = system: EKVX
SK-MEL-2 = system: SK-MEL-2
SR = system: SR
CAKI-1 = system: CAKI-1
LOX IMVI = system: LOX IMVI
BT-549 = system: BT-549
OVCAR-3 = system: OVCAR-3
SK-MEL-5 = system: SK-MEL-5
SNB-19 = system: SNB-19
MCF7 = system: MCF7
UACC-62 = system: UACC-62
M14 = system: M14
KM12 = system: KM12
MOLT-4 = system: MOLT-4
NCI-H23 = system: NCI-H23
NCI/ADR-RES = system: NCI/ADR-RES
SF-295 = system: SF-295
OVCAR-4 = system: OVCAR-4
IGROV-1 = system: IGROV-1
RPMI-8226 = system: RPMI-8226
SK-MEL-28 = system: SK-MEL-28
T47D = system: T47D
HOP-62 = system: HOP-62
HOP-92 = system: HOP-92
K562 = system: K562
OVCAR-5 = system: OVCAR-5
HCT-15 = system: HCT-15
HCT-116 = system: HCT-116
ACHN = system: ACHN
PC-3 = system: PC-3
HL-60 = system: HL-60
NCI-H460 = system: NCI-H460
Hs-578T = system: Hs-578T
MDA-N = system: MDA-N
U-251 = system: U-251
HT-29 = system: HT-29
HCC 2998 = system: HCC 2998
A498 = system: A498
RXF 393 = system: RXF 393
SF-539 = system: SF-539
MDA-MB-231 = system: MDA-MB-231

O=C(Sc1c(-c2ccccc2)c(=O)n(-c2ccccc2)c(=S)n1-c1ccccc1)c1cccs1
GI50 (TK-10): > 100 µM (inactive) | GI50 (CCRF-CEM): 11.8 µM (inactive) | GI50 (NCI-H522): 29.2 µM (inactive) | GI50 (OVCAR-8): 73.3 µM (inactive) | GI50 (A549): > 100 µM (inactive) | GI50 (SNB-75): 29.6 µM (inactive) | GI50 (NCI-H226): > 100 µM (inactive) | GI50 (UACC-257): 60.3 µM (inactive) | GI50 (786-0): 49.8 µM (inactive) | GI50 (DU-145): > 100 µM (inactive) | GI50 (UO-31): > 100 µM (inactive) | GI50 (SN12C): 50.4 µM (inactive) | GI50 (COLO 205): > 100 µM (inactive) | GI50 (SF-268): > 100 µM (inactive) | GI50 (SK-OV-3): 35 µM (inactive) | GI50 (SW-620): 24.6 µM (inactive) | GI50 (Malme-3M): 86.3 µM (inactive) | GI50 (MDA-MB-435): 56.4 µM (inactive) | GI50 (EKVX): > 100 µM (inactive) | GI50 (SK-MEL-2): 53 µM (inactive) | GI50 (SR): 38.4 µM (inactive) | GI50 (CAKI-1): > 100 µM (inactive) | GI50 (LOX IMVI): 11.4 µM (inactive) | GI50 (BT-549): > 100 µM (inactive) | GI50 (OVCAR-3): > 100 µM (inactive) | GI50 (SK-MEL-5): 19.2 µM (inactive) | GI50 (SNB-19): > 100 µM (inactive) | GI50 (MCF7): 50.4 µM (inactive) | GI50 (UACC-62): > 10 µM (inactive) | GI50 (M14): 53.6 µM (inactive) | GI50 (KM12): > 100 µM (inactive) | GI50 (MOLT-4): 18.7 µM (inactive) | GI50 (NCI-H23): > 100 µM (inactive) | GI50 (NCI/ADR-RES): 50.8 µM (inactive) | GI50 (SF-295): 61 µM (inactive) | GI50 (OVCAR-4): > 100 µM (inactive) | GI50 (IGROV-1): 49.7 µM (inactive) | GI50 (RPMI-8226): 24.4 µM (inactive) | GI50 (SK-MEL-28): > 100 µM (inactive) | GI50 (T47D): > 100 µM (inactive) | GI50 (HOP-62): > 100 µM (inactive) | GI50 (HOP-92): 50 µM (inactive) | GI50 (K562): 25.1 µM (inactive) | GI50 (OVCAR-5): > 100 µM (inactive) | GI50 (HCT-15): 34.7 µM | GI50 (HCT-116): 56.2 µM (inactive) | GI50 (ACHN): 81.8 µM (inactive) | GI50 (PC-3): 73.8 µM (inactive) | GI50 (HL-60): 76 µM (inactive) | GI50 (NCI-H460): > 100 µM (inactive) | GI50 (Hs-578T): > 100 µM (inactive) | GI50 (MDA-N): 70 µM (inactive) | GI50 (U-251): 84.1 µM (inactive) | GI50 (HT-29): 72.3 µM (inactive)

O=C1CN(c2cccc(Cl)c2)C(=O)CN1NCNN1CC(=O)N(c2cccc(Cl)c2)CC1=O
GI50 (TK-10): > 100 µM (inactive) | GI50 (CCRF-CEM): > 100 µM (inactive) | GI50 (NCI-H522): > 100 µM (inactive) | GI50 (OVCAR-8): > 100 µM (inactive) | GI50 (A549): > 100 µM (inactive) | GI50 (SNB-75): 38.3 µM (inactive) | GI50 (UACC-257): > 100 µM (inactive) | GI50 (786-0): > 100 µM (inactive) | GI50 (DU-145): > 100 µM (inactive) | GI50 (UO-31): > 100 µM (inactive) | GI50 (SN12C): > 100 µM (inactive) | GI50 (COLO 205): > 100 µM (inactive) | GI50 (SF-268): > 100 µM (inactive) | GI50 (SK-OV-3): > 100 µM (inactive) | GI50 (SW-620): > 100 µM (inactive) | GI50 (Malme-3M): > 100 µM (inactive) | GI50 (MDA-MB-435): > 100 µM (inactive) | GI50 (EKVX): > 100 µM (inactive) | GI50 (SR): > 100 µM (inactive) | GI50 (CAKI-1): > 100 µM (inactive) | GI50 (BT-549): > 100 µM (inactive) | GI50 (OVCAR-3): > 100 µM (inactive) | GI50 (SK-MEL-5): > 100 µM (inactive) | GI50 (HCC 2998): > 100 µM (inactive) | GI50 (SNB-19): > 100 µM (inactive) | GI50 (MCF7): > 100 µM (inactive) | GI50 (UACC-62): > 100 µM (inactive) | GI50 (M14): > 100 µM (inactive) | GI50 (KM12): > 100 µM (inactive) | GI50 (MOLT-4): > 100 µM (inactive) | GI50 (NCI-H23): > 100 µM (inactive) | GI50 (SF-295): > 100 µM (inactive) | GI50 (OVCAR-4): > 100 µM (inactive) | GI50 (A498): > 100 µM (inactive) | GI50 (IGROV-1): > 100 µM (inactive) | GI50 (RPMI-8226): > 100 µM (inactive) | GI50 (SK-MEL-28): > 100 µM (inactive) | GI50 (HOP-62): > 100 µM (inactive) | GI50 (HOP-92): > 100 µM (inactive) | GI50 (OVCAR-5): > 100 µM (inactive) | GI50 (HCT-15): > 100 µM | GI50 (RXF 393): > 100 µM (inactive) | GI50 (HCT-116): > 100 µM (inactive) | GI50 (ACHN): > 100 µM (inactive) | GI50 (PC-3): > 100 µM (inactive) | GI50 (HL-60): > 100 µM (inactive) | GI50 (NCI-H460): > 100 µM (inactive) | GI50 (Hs-578T): > 100 µM (inactive) | GI50 (MDA-N): > 100 µM (inactive) | GI50 (SF-539): > 100 µM (inactive) | GI50 (U-251): > 100 µM (inactive) | GI50 (HT-29): > 100 µM (inactive)

CCOc1ccc(/N=C/C=C(\Cl)c2ccc3ccccc3c2)cc1
GI50 (TK-10): 17.5 µM (inactive) | GI50 (CCRF-CEM): 3.56 µM (inactive) | GI50 (NCI-H522): 19.5 µM (inactive) | GI50 (OVCAR-8): 16.2 µM (inactive) | GI50 (A549): 29.8 µM (inactive) | GI50 (SNB-75): 14.3 µM (inactive) | GI50 (NCI-H226): 22.4 µM (inactive) | GI50 (UACC-257): 15.9 µM (inactive) | GI50 (786-0): 12.8 µM (inactive) | GI50 (DU-145): 16.7 µM (inactive) | GI50 (UO-31): 15.2 µM (inactive) | GI50 (SN12C): 17.4 µM (inactive) | GI50 (COLO 205): 16.7 µM (inactive) | GI50 (SF-268): 17.9 µM (inactive) | GI50 (SK-OV-3): 19.7 µM (inactive) | GI50 (SW-620): 7.33 µM (inactive) | GI50 (Malme-3M): 14.2 µM (inactive) | GI50 (MDA-MB-435): 19.4 µM (inactive) | GI50 (EKVX): 27.2 µM (inactive) | GI50 (SK-MEL-2): 19.6 µM (inactive) | GI50 (SR): 2.52 µM (inactive) | GI50 (CAKI-1): 18.8 µM (inactive) | GI50 (LOX IMVI): 6.58 µM (inactive) | GI50 (BT-549): 20.2 µM (inactive) | GI50 (OVCAR-3): 15.2 µM (inactive) | GI50 (SK-MEL-5): 16.4 µM (inactive) | GI50 (HCC 2998): 0.022 µM (active) | GI50 (SNB-19): 16.4 µM (inactive) | GI50 (MCF7): 17.7 µM (inactive) | GI50 (UACC-62): 15.8 µM (inactive) | GI50 (M14): 20.8 µM (inactive) | GI50 (KM12): 16.3 µM (inactive) | GI50 (MOLT-4): 2.55 µM (inactive) | GI50 (NCI-H23): 10.6 µM (inactive) | GI50 (MDA-MB-231): 15.4 µM (inactive) | GI50 (NCI/ADR-RES): 12.1 µM (inactive) | GI50 (SF-295): 18.8 µM (inactive) | GI50 (OVCAR-4): 10.6 µM (inactive) | GI50 (A498): > 58.3 µM (inactive) | GI50 (IGROV-1): 17.1 µM (inactive) | GI50 (RPMI-8226): 6.65 µM (inactive) | GI50 (SK-MEL-28): 11.8 µM (inactive) | GI50 (T47D): 4.95 µM (inactive) | GI50 (HOP-62): 15.3 µM (inactive) | GI50 (HOP-92): 15.3 µM (inactive) | GI50 (K562): 8.55 µM (inactive) | GI50 (OVCAR-5): 17.8 µM (inactive) | GI50 (HCT-15): 13.7 µM | GI50 (RXF 393): 15.3 µM (inactive) | GI50 (HCT-116): 9.14 µM (inactive) | GI50 (ACHN): 17.7 µM (inactive) | GI50 (PC-3): 16.5 µM (inactive) | GI50 (HL-60): 8.59 µM (inactive) | GI50 (NCI-H460): 20 µM (inactive) | GI50 (Hs-578T): 29.8 µM (inactive) | GI50 (SF-539): 21.2 µM (inactive) | GI50 (U-251): 17.5 µM (inactive) | GI50 (HT-29): 11.5 µM (inactive)
